Measurements taken from ChEMBL document CHEMBL1770080, “Diamide amino-imidazoles: a novel series of γ-secretase inhibitors for the treatment of Alzheimer's disease” (Bioorg Med Chem Lett, 2011).
Each block holds one compound with its values, some of them ahead of it. The source made the active and inactive calls. The rule behind the calls is not given here.

Key:
[1] = test system: Cavia porcellus; assay: Antialzheimer activity in guinea pig assessed as reduction of total amyloid beta level in brain at 10 mg/kg, sc after 3 hrs by DELFIA-based ELISA; format: functional; set-up: scale not given: the % may be the effect or the level left
[2] = Inhibition of gamma secretase-mediated notch processing in C57BL/6 mouse fetal thymic organ cultures assessed as reduction of B and T-cell populations after […] by FACS analysis
[3] = test system: Cavia porcellus; assay: Antialzheimer activity in sc dosed guinea pig assessed as reduction of total amyloid beta level in brain after 3 hrs by DELFIA-based ELISA; format: functional
[4] = test system: Cavia porcellus; assay: Antialzheimer activity in guinea pig assessed as reduction of total amyloid beta level in plasma at 1 to 32 mg/kg, sc after 3 hrs by DELFIA-based ELISA; format: functional; set-up: scale not given: the % may be the effect or the level left; details: dose mg/kg 1-32; route subcutaneous
[5] = test system: Cavia porcellus; assay: Antialzheimer activity in guinea pig assessed as reduction of total amyloid beta level in plasma at 3.2 mg/kg, sc after 3 hrs by DELFIA-based ELISA; format: functional, organism-based; set-up: dose 3.2 mg/kg
[6] = test system: Cavia porcellus; assay: Antialzheimer activity in guinea pig assessed as reduction of total amyloid beta level in plasma at 1 to 32 mg/kg, sc after 1 hr by DELFIA-based ELISA; format: functional, organism-based
[7] = test system: Cavia porcellus; assay: Antialzheimer activity in guinea pig assessed as reduction of total amyloid beta level in brain at 1 to 32 mg/kg, sc after 1 hr by DELFIA-based ELISA; format: functional, organism-based
[8] = test system: Cavia porcellus; assay: Antialzheimer activity in guinea pig assessed as reduction of total amyloid beta level in cerebral spinal fluid at 1 to 32 mg/kg, sc after 1 hr by DELFIA-based ELISA; format: functional, organism-based
[9] = test system: Cavia porcellus; assay: Antialzheimer activity in guinea pig assessed as reduction of total amyloid beta level in plasma at 1 to 32 mg/kg, sc after 3 to 7 hrs by DELFIA-based ELISA; format: functional, organism-based
[10] = test system: Cavia porcellus; assay: Antialzheimer activity in guinea pig assessed as reduction of total amyloid beta level in brain at 1 to 32 mg/kg, sc after 3 to 7 hrs by DELFIA-based ELISA; format: functional, organism-based
[11] = test system: Cavia porcellus; assay: Antialzheimer activity in guinea pig assessed as reduction of total amyloid beta level in cerebral spinal fluid at 1 to 32 mg/kg, sc after 3 to 7 hrs by DELFIA-based ELISA; format: functional, organism-based
[12] = test system: Cavia porcellus; assay: Antialzheimer activity in guinea pig assessed as reduction of total amyloid beta level in brain at 5 mg/kg, sc administered 3 doses over 24 hrs measured after 3 hrs last post dose by DELFIA-based ELISA; format: functional; set-up: scale not given: the % may be the effect or the level left; details: route subcutaneous
[13] = Inhibition of gamma-secretase in guinea pig brain; set-up: species or system Cavia porcellus
[14] = organism: Mus musculus; assay: Antialzheimer activity in heterozygous PDAPP transgenic mouse overexpressing APP V717F mutant assessed as reduction of total amyloid beta level in brain; format: functional; details: read-out: MED

Structure (SMILES): CCC[C@H](NC(=O)Cc1cc(F)cc(F)c1)C(=O)Nc1cn(C(CC)CC)cn1
Activity ([1]; route subcutaneous): <10%

Structure (SMILES): C[C@H](NC(=O)Cc1cc(F)cc(F)c1)C(=O)Nc1cn(C(C)(C)CN2CCCC2)cn1
Activity [1]: inactive

Structure (SMILES): CC(C)C[C@H](NC(=O)Cc1cc(F)cc(F)c1)C(=O)Nc1cn(C(C)(C)CN2CCCC2)cn1
Activity [1]: inactive

Structure (SMILES): C[C@H](NC(=O)Cc1cc(F)cc(F)c1)C(=O)N[C@H](C(=O)OC(C)(C)C)c1ccccc1
minimal effective dose [14]: 30 mg/kg

Structure (SMILES): CCC[C@H](NC(=O)Cc1cc(F)cc(F)c1)C(=O)Nc1cn(C(C)(C)CC(=O)OC)cn1
Activity ([1]; route subcutaneous): 32%

Structure (SMILES): CCC[C@H](NC(=O)Cc1cc(F)cc(F)c1)C(=O)Nc1cn(C(C)(C)CN2CCCC2)cn1
Activity ([1]; route subcutaneous): 43%

Further lines, with some results ahead:

EC50 [2]: 0.7 µM
Structure (SMILES): CCC[C@H](NC(=O)Cc1cc(F)cc(F)c1)C(=O)Nc1cn(C(C)(C)CN(C)C)cn1

EC50 [2]: 1.2 µM
IC50 [13]: 0.024 µM
Structure (SMILES): CCC[C@H](NC(=O)Cc1cc(F)cc(F)c1)C(=O)Nc1cn(C(C)(C)CNCC(C)(C)C)cn1
ED50 [3]: 7.3 mg/kg
Activity [4]: 60%
Activity [5]: Active
Activity [6]: Active
Activity [7]: Active
Activity [8]: inactive
Activity [9]: Active
Activity [10]: Active
Activity [11]: Active
Activity [12]: 50%

EC50 [2]: 4 µM
Structure (SMILES): CCC[C@H](NC(=O)Cc1cc(F)cc(F)c1)C(=O)Nc1cn(C(C)(C)CNCC2CCOCC2)cn1

EC50 [2]: > 10 µM
Structure (SMILES): CCC[C@H](NC(=O)Cc1cc(F)cc(F)c1)C(=O)Nc1cn(C(C)(C)CNC(C)C)cn1

EC50 [2]: > 10 µM
Structure (SMILES): CCC[C@H](NC(=O)Cc1cc(F)cc(F)c1)C(=O)Nc1cn(C(C)(C)CNC2CCC(O)CC2)cn1 (some centres undefined)

EC50 [2]: 4.3 µM
Structure (SMILES): CCC[C@H](NC(=O)Cc1cc(F)cc(F)c1)C(=O)Nc1cn(C(C)(C)CNCc2ccccc2)cn1

EC50 [2]: 0.1 µM
Structure (SMILES): CCC[C@H](NC(=O)Cc1cc(F)cc(F)c1)C(=O)Nc1cn(C(C)(C)CN2CCOCC2)cn1
